Results reported in US12729381B2, “Methods and compositions for inactivating interleukin-2-inducible t-cell kinase (ITK)” (priority 2020, dated 2026).
Non-standard residues stand in square brackets, D forms with d. No end group written: not given here. *: point of attachment. FITC = O=C1OC2(c3ccc(O)cc3Oc3cc(O)ccc32)c2ccc(NC(=S)*)cc21; pY = N[C@@H](Cc1ccc(OP(=O)(O)O)cc1)C(=O)O

Tested on: GVHD and B-ALL-luc tumor cells
Assay: Allo-HSCT GVHD/GVL model with donor T cells transduced with SLP76pTYR-pCherry virus
Type: in vivo, BALB/c mice
Conditions: murine allo-HSCT major mismatch model
Protocol: GVHD and GVL studies: Recipient BALB/c mice (MHC haplotype d) as recipients were lethally irradiated with 800 cGy total in two split doses of 400cGy. Bone marrow cells were harvested from mouse legs, and total bone marrow cells were incubated with CD90.2 beads, using 100 ul of beads per mouse according to manufacturer protocols. NK cells were depleted and by DX5 beads, and CD122+ cells with anti PE beads. Recipient mice were injected intravenously with 10×10^6 T cell-depleted bone marrow (TCDBM) cells, with or without donor T cells, either 1×10^6 or 2×10^6 FACS-sorted CD8^+, CD4^+ T cells, or CD8^+ and CD4^+ cells mixed at a 1:1 ratio from WT or SLP76 Y145FKI mice. For GVL experiments, primary B cell acute lymphoblastic leukemia (B-ALL, syngeneic to BALB/c and allogeneic to C57BI/6) blasts were transduced with luciferase as described previously (Cheng et al., 2016), and 2×10^5 luciferase-expressing B-ALL-luc cells were used per recipient mouse unless otherwise specified. […] The bioluminescence data were analyzed and quantified with Living Image Software (Xenogen) and Igor Pro (Wave Metrics, Lake Oswego, OR). Recipient animals were evaluated for clinical score 2-3 times per week by a scoring system that sums changes in 6 clinical parameters: (1) weight loss, (2) posture, (3) activity, (4) fur texture, (5) diarrhea and (6) skin integrity (Cooke et al., 1996). […]

Substance: FITC Dye ^132NEEEEAPVEDDADpYEPPPSNDEEA^155-TAT ({FITC}-NEEEEAPVEDDAD[pY]EPPPSNDEEAGRKKRRQRRRPQ) [SLP76pTYR]
- GVHD and GVL outcome (summary statement): tumor clearance without inducing GVHD
- GVHD and GVL outcome (summary statement) (listed as SLP76145pTYR): significantly reduced GVHD pathophysiology but maintained GVL function
